Assay results published in patent publication US9017952B2, “Reagents for probing ROCKs activation” (National Yang Ming University, priority 2012, dated 2015).
Each block holds one compound with its values, some of them ahead of it. Square brackets hold non-standard residues; d marks the D form. Ends that are not written are not given here. pS = N[C@@H](COP(=O)(O)O)C(=O)O

How the values were obtained:
[1] = test system: ROCKII Ser^1366 phosphorylation; assay: Western blotting of serum-starved mouse embryonic fibroblasts stimulated with nocodazole with or without Y27632; assay type: cell-based
Protocol: FIGS. 6(A) and 6(B) respectively illustrate the Western blotting patterns showing (A) antibody-I and (B) antibody-II against the protein extract from normal mouse embryonic fibroblasts (MEFs) stimulated with nocodazole(10 μM) in present or absent of Y27632 (10 μM).
In addition to the above human cell experiments, the level of Ser^1366 phosphorylation of ROCKII in animal cells is also researched in the present invention.

[2] = target: ROCKII Ser^1366 phosphorylation (Bos taurus, UniProt Q28021); assay: Western blotting of Ser1366 phosphorylated myc-ROCKII from treated HEK293T cells; assay type: cell-based, human; conditions: Y27632 20 μM for 2 hours, probed with antibody-II
Protocol: myc-ROCKII-expressing cells were harvested in an immunoprecipitation (IP) buffer (1% NP-40, 5% glycerol, 50 mM Tris/HCl, pH 7.4, 150 mM NaCl, 1 mM PMSF (phenylmethylsulfonyl fluoride), and protease inhibitor cocktail). The lysates after pre-clearance were incubated with anti-myc antibody at 4° C. for 60 minutes, and then precipitated with protein A-agarose beads for 30 minutes. The immunoprecipitates were preincubated with or without 100 μM of Y27632 (ROCK inhibitor), which was followed by incubation with a IX kinase buffer (50 mM Tris/HCl, pH 7.4, 10 mM MgCl2, 1 mM EGTA (ethylene glycol tetraacetic acid), 0.5 mM DTT (dithiothreitol), 5 mM NaF, and 0.1 mM Na3VO4, 20 μM ATP) containing 5 μCi of [γ-^32p]ATP at 30° C. for 20 minutes. The immunoprecipitates (controls) from non-transfected cells were used backgrounds. The protein level of myc-ROCKII was detected by Western blotting with anti-myc antibody known by the skilled person in the art.

[3] = target: myc-ROCKII (Bos taurus, UniProt Q28021); assay: in vitro kinase reaction of immunoprecipitated myc-ROCKII with [γ-32P]ATP (autophosphorylation); assay type: biochemical; conditions: immunoprecipitates preincubated with 100 μM Y27632; 30° C., 20 minutes
Protocol: myc-ROCKII-expressing cells were harvested in an immunoprecipitation (IP) buffer (1% NP-40, 5% glycerol, 50 mM Tris/HCl, pH 7.4, 150 mM NaCl, 1 mM PMSF (phenylmethylsulfonyl fluoride), and protease inhibitor cocktail). The lysates after pre-clearance were incubated with anti-myc antibody at 4° C. for 60 minutes, and then precipitated with protein A-agarose beads for 30 minutes. The immunoprecipitates were preincubated with or without 100 μM of Y27632 (ROCK inhibitor), which was followed by incubation with a IX kinase buffer (50 mM Tris/HCl, pH 7.4, 10 mM MgCl2, 1 mM EGTA (ethylene glycol tetraacetic acid), 0.5 mM DTT (dithiothreitol), 5 mM NaF, and 0.1 mM Na3VO4, 20 μM ATP) containing 5 μCi of [γ-^32p]ATP at 30° C. for 20 minutes. The immunoprecipitates (controls) from non-transfected cells were used backgrounds.
The myc-ROCKII protein overexpressed in HEK-293T cells was immunoprecipitated and subjected to an in vitro kinase reaction containing [γ-^32P]ATP in the presence or absence of the ROCK inhibitor Y27632.

[4] = test system: ROCKII Ser^1366 phosphorylation; assay: immunohistochemical staining of human breast tumor tissue with anti-pSer1366 ROCKII antibody and peptide competition; conditions: antibody 5 μg/ml, peptide 0.5 μg/ml
Excerpt: FIG. 7 illustrates the immunohistochemistry images showing RCOKII Ser^1366 phosphorylation in human breast tumor tissues. The tumor part and non-tumor part breast tissues of from two breast cancer patients are sectioned, and probed with anti-pSer^1366 ROCKII antibody in the presence of phosphorylated peptide-lib and unphosphorylated peptide-IIa. The normal rabbit IgG is the control for negative reaction, and #1 is negative for lymph node and #2 is positive for lymph node.
The tumor part and the non-tumor part of the breast tissue blocks were embedded in Tissue-Tek OCT™ compound, snap-frozen, and sectioned into 5 μm cryosections. The sections were fixed with 4% (w/v) paraformaldehyde for 15 minutes and placed in boiling citrate buffer for 10 minutes. Endogenous peroxidase activity was quenched by 3% […] for 10 minutes and this was followed by incubation with 5.5% (v/v) normal goat serum in Tris-buffer saline containing 0.1% of Triton X-100 (TBST) for blocking. Sections were subsequently incubated with primary antibody against pSer^1366 ROCKII (1:200 dilution; 5 μg/ml) in the present or absence of the phosphopeptide or non-phosphopeptide (0.5 μg/ml). […]
Next, whether ROCKII Ser^1366 phosphorylation can be detected is determined by anti-pSer^1366 ROCKII antibody-II. […]

[5] = test system: Ser^1366 phosphorylated myc-ROCKII; assay: Western blotting with anti-pSer1366 ROCKII antibody, with peptide neutralization and λPPase treatment; assay type: binding; conditions: peptide 0.2 μg/ml, antibody 1 μg/ml
Protocol: FIG. 2(A) illustrates the Western blotting pattern showing anti-pSer^1366 ROCKII antibody-II against the phosphorylated ROCKII. myc-ROCKII protein is obtained with extraction after the WT or S1366A mutant myc-ROCKII expression constructs are respectively transfected into HEK-293T cells and immunoprecipitated using anti-myc antibody, and Ser^1366 phosphorylation of myc-ROCKII is probed with antibody-II (1 μg/ml) with or without the competition of phosphorylated peptide-IIa (0.2 μg/ml).
FIG. 3 illustrates the Western blotting pattern showing the signal of immunoprecipitated WT myc-ROCKII with or without λ protein phosphatase (λPPase) at 30° C. for 20 minutes treatment probed with antibody-II
(§1) myc-ROCKII-expressing cells were harvested in an immunoprecipitation (IP) buffer (1% NP-40, 5% glycerol, 50 mM Tris/HCl, pH 7.4, 150 mM NaCl, 1 mM PMSF (phenylmethylsulfonyl fluoride), and protease inhibitor cocktail). The lysates after pre-clearance were incubated with anti-myc antibody at 4° C. for 60 minutes, and then precipitated with protein A-agarose beads for 30 minutes. […] The protein level of myc-ROCKII was detected by Western blotting with anti-myc antibody known by the skilled person in the art. […]

[6] = test system: Ser^1333 phosphorylated flag-ROCKI; assay: Western blotting with anti-pSer1333 ROCKI antibody, with peptide neutralization; assay type: binding; conditions: peptide 0.2 μg/ml, antibody 1 μg/ml
Protocol: FIG. 2(B) illustrates the Western blotting pattern showing anti-pSer^1333 ROCKI antibody-I against the phosphorylated ROCKI. flag-ROCKI protein is obtained with extraction after the WT or S1333A mutant flag-ROCKI expression constructs are respectively transfected to […] cells and immunoprecipitated using anti-flag antibody, and Ser^1333 phosphorylation of flag-ROCKI is probed with antibody-I (1 μg/ml) with or without the competition of phosphorylated peptide-Ia (0.2 μg/ml).
as §1, with “minutes. The immunoprecipitates were preincubated with or without 100 μM of Y27632 (ROCK inhibitor), which was followed by incubation with a IX kinase buffer (50 mM Tris/HCl, pH 7.4, 10 mM MgCl2, 1 mM EGTA (ethylene glycol tetraacetic acid), 0.5 mM DTT (dithiothreitol), 5 mM NaF, and 0.1 mM Na3VO4, 20 μM ATP) containing 5 μCi of [γ-^32p]ATP at 30° C. for 20 minutes.” for “minutes.”

[7] = MEFs serum-starved 24 hours, nocodazole 10 μM

Chain of ROCKII Ser^1366 phosphorylation (Bos taurus, UniProt Q28021) (Q28021 6-1388): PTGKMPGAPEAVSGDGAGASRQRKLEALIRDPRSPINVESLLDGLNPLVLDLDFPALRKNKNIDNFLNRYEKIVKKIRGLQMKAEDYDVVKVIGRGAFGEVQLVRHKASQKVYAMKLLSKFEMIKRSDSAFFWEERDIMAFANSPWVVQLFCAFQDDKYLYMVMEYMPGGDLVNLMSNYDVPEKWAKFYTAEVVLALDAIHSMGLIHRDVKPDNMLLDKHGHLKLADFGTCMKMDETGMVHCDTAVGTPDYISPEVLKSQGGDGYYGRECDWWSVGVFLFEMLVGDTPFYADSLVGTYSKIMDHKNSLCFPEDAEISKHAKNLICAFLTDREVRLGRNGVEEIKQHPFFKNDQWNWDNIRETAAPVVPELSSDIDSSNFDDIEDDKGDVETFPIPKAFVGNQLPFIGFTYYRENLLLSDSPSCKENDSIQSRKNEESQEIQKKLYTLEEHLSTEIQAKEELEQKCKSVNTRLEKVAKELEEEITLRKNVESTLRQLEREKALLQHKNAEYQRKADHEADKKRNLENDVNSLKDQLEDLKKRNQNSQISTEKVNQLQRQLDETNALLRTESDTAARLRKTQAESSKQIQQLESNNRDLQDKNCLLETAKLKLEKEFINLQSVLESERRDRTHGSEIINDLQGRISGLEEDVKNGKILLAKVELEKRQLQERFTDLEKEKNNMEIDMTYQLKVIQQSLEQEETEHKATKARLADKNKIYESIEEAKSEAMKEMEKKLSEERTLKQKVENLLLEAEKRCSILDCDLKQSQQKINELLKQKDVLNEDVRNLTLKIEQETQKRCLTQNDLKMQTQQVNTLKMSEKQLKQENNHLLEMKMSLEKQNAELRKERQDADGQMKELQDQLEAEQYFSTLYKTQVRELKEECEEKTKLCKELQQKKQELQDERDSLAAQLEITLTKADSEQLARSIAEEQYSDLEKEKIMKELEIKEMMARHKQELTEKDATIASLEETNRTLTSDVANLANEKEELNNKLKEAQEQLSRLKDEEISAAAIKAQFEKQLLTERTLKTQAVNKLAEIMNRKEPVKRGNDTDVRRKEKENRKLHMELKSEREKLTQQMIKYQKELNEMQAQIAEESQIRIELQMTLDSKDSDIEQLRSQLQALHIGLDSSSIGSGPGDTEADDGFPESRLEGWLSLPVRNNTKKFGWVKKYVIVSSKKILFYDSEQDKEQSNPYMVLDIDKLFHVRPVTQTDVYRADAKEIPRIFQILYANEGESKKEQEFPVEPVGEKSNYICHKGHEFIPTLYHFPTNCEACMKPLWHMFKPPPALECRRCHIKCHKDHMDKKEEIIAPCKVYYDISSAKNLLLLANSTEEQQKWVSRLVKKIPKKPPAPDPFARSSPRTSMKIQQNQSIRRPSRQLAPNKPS
Chain of myc-ROCKII (Q28021 6-1388): as above

signal level of Ser^1366 phosphorylated myc-ROCKII [2]: markedly decreased
phosphorylation signal of radioactively labeled ROCKII [3]: abolished the phosphorylation signal
Compound: C[C@@H](N)[C@H]1CC[C@H](C(=O)Nc2ccncc2)CC1 [Y27632]
enhanced phosphorylation signal (ROCKII Ser^1366, phospho-MLC) induced by nocodazole ([1]; MEFs, nocodazole 10 μM plus Y27632 10 μM): disappeared

Compound: COC(=O)Nc1nc2ccc(C(=O)c3cccs3)cc2[nH]1 [nocodazole]
downstream phosphor-MLC signal regulated by ROCKII [1, 7]: markedly increased
signal of ROCKII Ser^1366 phosphorylation [1, 7]: enhanced

Compound: N′-DPFARSSPRTpSMK-C′ (SEQ ID NO:6) (DPFARSSPRT[pS]MK) [peptide-lib]
ROCKII Ser^1366 phosphorylation signal in IHC under peptide competition [4]: blocked
neutralization of the autophosphorylated signal of anti-pSer^1366 ROCKII antibody [5]: neutralized

Compound: N′-RASPRTLpSTRS-C′ (SEQ ID NO:4) (RASPRTL[pS]TRS) [peptide-Ib]
neutralization of the autophosphorylated signal of anti-pSer^1333 ROCKI antibody [6]: neutralized
